# From article PMC7815808, “Enzyme and lateral flow monoclonal antibody-based immunoassays to simultaneously determine spirotetramat and spirotetramat-enol in foodstuffs” (Scientific Reports, 2021)
# What was measured:
# mAb SPm#23 [1] = assay: Optimized direct cELISA (mAb SPm#23 with tracer HRP–SPh), SP-enol standard curve; assay type: binding, mouse; conditions: direct cELISA, heterologous bioconjugate
# Description: (§1) In order to simultaneously quantify SP and SP-enol contents in a sample, an in situ procedure for treating the sample with alkaline solution in order to hydrolyse SP into SP-enol was assessed. SP and SP-enol standard solutions were prepared in MilliQ water and diluted fivefold with 40 mM NaOH. The mixtures were incubated 10 min at room temperature and diluted twofold with dilution buffer (200 mM Tris·HCl buffer, pH 8.0, containing 280 mM NaCl). For the competitive step, enzyme tracer solutions were prepared in TBS-T (100 mM Tris·HCl buffer, pH 8.0, containing 140 mM NaCl and 0.05% (v/v) Tween-20). As shown in the inset of Table 2, the obtained standard curves of SP-enol and hydrolysed SP were almost identical. This hydrolysis procedure was validated by HPLC‒MS/MS. SP and SP-enol aqueous solutions (50 µg/mL) were treated with NaOH and, 10 min later, the pH was lowered as previously described. Then, 10 µL of hydrolysed and diluted sample was transferred into 990 µL of acetonitrile and dried with anhydrous MgSO4. Controls without the hydrolysis step were also evaluated. Finally, the contents of SP, SP-enol, SP-keto, and SP-mono in the organic extracts were quantified (Table 2). […] Those samples were also analysed with the studied direct cELISA by running SP-enol standard solutions that had been incubated in NaOH and diluted with dilution buffer like the samples. […] Consequently, the developed hydrolysis procedure seemed to perform adequately for SP and SP-enol residue quantification as SP-enol equivalents.
# The sigmoidal inhibition curve obtained for SP-enol and the final assay conditions of the developed direct cELISA are provided in Table 3. […] The Amax value of the standard curve was near 1.0, the slope was − 1.4, and the background signal was negligible.
# (§2) Microplates were precoated with GAM in order to immobilise the mAb. The competitive step was carried out by mixing the analyte solution or diluted sample with the enzyme tracer solution. Standard curves were built in borosilicate glass tubes from 0.03 to 30 nM by a threefold serial dilution of the most concentrated standard solution, and a blank (no analyte) was also run. Concentrated stock solutions of the analytes in anhydrous DMF were used to prepare the most concentrated standard solution—the DMF concentration was always lower than 0.1% (v/v). The complete immunoassay procedure can be found in the Supplementary Information file.
# The absorbance of each microplate well was immediately read at 492 nm using a reference wavelength at 650 nm, and values were processed with KCJunior software from BioTek Instruments. The SigmaPlot Version 14.0 was used to fit the experimental values to a standard four-parameter logistic curve. Immunoassay sensitivity was estimated as the concentration of analyte affording a 50% decrease (IC50) of the maximum absorbance (Amax) obtained in the absence of analyte. The LOD of the assay was defined as the IC10 of the sigmoidal inhibition curve. The LOQ was experimentally determined as the lowest analyte concentration that provided accurate and precise results using fortified food samples. […]
# (§3) 7. Direct competitive ELISA procedure
# (§4) The same protocol previously described for this format was applied.7 Briefly, plates were coated with 100 µL per well of 1 µg/mL GAM solution in carbonate‒bicarbonate buffer, pH 9.6, by overnight incubation at 4 °C. Wells were washed four times with washing solution (150 mM NaCl with 0.05% (v/v) Tween-20) after each incubation step. […]
# [2] = Spirotetramat hydrolysis study by direct cELISA; assay type: physicochemical
# Description: as §1
# mAb SPm#23 [3] = assay: Antibody specificity (cross-reactivity) of the selected mAb; assay type: binding, mouse; conditions: cross-reactivity of the selected mAb, SP-enol = 100; n=3
# Description: (§5) Concerning specificity, the two assayed immunogens (BSA‒SPm and BSA‒SPo) afforded equivalent results. […] Cross-reactivity with the main SP metabolites was studied with antibody SPm#23.
# as §2
# (§6) Table S1. Specificity of the
# as §3
# as §4, with “step. Then, 100 µL per well of specific mAb solution in PBS-T was added and plates were incubated at room temperature during 1 h. The competitive reaction was carried out by adding 50 µL per well of analyte solution or diluted sample and 50 µL per well of tracer” for “step.”
# (§7) enzyme substrate solution (2 mg/mL o-phenylendiamine and 0.012% (v/v) H2O2 in 25 mM sodium citrate and 62 mM sodium phosphate buffer, pH 5.4). Ten minutes later, the enzyme reaction was stopped by adding 100 µL per well of 1 M H2SO4.
# 8. Influence of pH and ionic strength
# Figure S5. Influence of pH and ionic strength over the Amax and IC50 values of the spirotetramat-enol standard curve of the studied direct cELISA.
# (§8) 7 E. Ceballos-Alcantarilla, D. López-Puertollano, C. Agulló, A. Abad-Fuentes, A. Abad-Somovilla, J. V. Mercader.
# Combined heterologies for monoclonal antibody-based immunoanalysis of fluxapyroxad. Analyst 143, 5718‒ […]
# [4] = design: method as in PMID 23436572; conditions: cited from earlier work
# mammals = system: mammals; design: method as in earlier work; conditions: cited from earlier work
# [5] = Spirotetramat hydrolysis study by HPLC‒MS/MS; assay type: physicochemical; design: content found by HPLC–MS/MS, sample treatment A / content found by HPLC–MS/MS, sample treatment B / content found by HPLC–MS/MS, sample treatment C / content found by HPLC–MS/MS, sample treatment D: unit not given beside the values
# Description: as §1
# SP, SP-enol, SP-keto, and SP-mono standard solutions were prepared by serial dilution in acetonitrile from 1 to 2500 μg/L in amber glass vials and kept at − 20 °C. The injection volume was 5 µL and the column temperature was 45 °C. The analysis was carried out using a C18 reverse phase column with a gradient of 0.2% (v/v) formic acid in water (A) and acetonitrile (B) as mobile phase at a flow rate of 0.3 mL/min. The elution profile was 0‒3 min, from 5% B to 95% B, 3.0‒3.5 min, 95% B, 3.5‒3.6 min, from 95% B to 5% B, and 3.6‒8 min, 5% B. Spectra were acquired in positive ionization multiple reaction monitoring mode with interchannel delay of 0.02 s.
# mAbs to SP and SP-enol = assay: Direct cELISA, binding of analytes and other pesticides by the generated mAbs; design: species or system mouse; conditions: homologous tracer, all mAbs; read-out: IC50 values with the homologous tracer
# Text: Six mouse mAbs were obtained; three were from immunogen BSA‒SPm—named SPm#23, SPm#25, and SPm#216—and three from conjugate BSA‒SPo—named SPo#227, SPo#237, and SPo#243. These antibodies contained κ light chains and were of the IgG1 isotype, except mAb SPm#25 which was IgG2a. The affinity to SP and SP-enol was studied by checkerboard cELISA in the capture antibody-coated direct format, using homologous and heterologous enzyme tracers (with the same or different hapten, respectively, than the immunizing conjugate). SP and SP-enol standards were prepared in PBS (10 mM phosphate buffer, pH 7.4, with 140 mM NaCl) and tracer solutions for the competitive step were prepared in PBS-T (PBS containing 0.05% (v/v) Tween-20). […] Tracers with linker site heterologies were not bound by the antibodies. The only exception was mAb SPm#23 which did recognize the heterologous HRP‒SPh conjugate. For this antibody, the spacer arm of hapten SPh was located at a more proximal site than that of hapten […]. The lowest IC50 value with the homologous tracer was around 3 nM for SP-enol whereas binding to SP was moderate (IC50 values were higher than 30 nM).
# as §5, §2, §6, §3
# as §4, with “step. Then, 100 µL per well of specific mAb solution in PBS-T was added and plates were incubated at room temperature during 1 h. The competitive reaction was carried out by adding 50 µL per well of analyte solution or diluted sample and 50 µL per well of tracer” for “step.”
# as §7
# 8. Influence of pH and ionic strength […]
# as §8
# Combined heterologies for monoclonal antibody-based immunoanalysis of fluxapyroxad. Analyst 143, 5718‒
smiles,measurement,setting,value
"CCOC(=O)OC1=C(c2cc(C)ccc2C)C(=O)N[C@]12CC[C@@H](OC)CC2 [SP, ethyl cis-8-methoxy-2-oxo-3-(2,5-xylyl)-1-azaspiro[4.5]dec-3-en-4-yl carbonate]",IC50 value for the sum of spirotetramat and spirotetramat-enol,mAb SPm#23 [1],0.1 µg/L
same,recovery measured as SP-enol by direct cELISA,[2]; incubated in NaOH solution (samples A and C),85.0%
same,recovery measured as SP-enol by direct cELISA,[2]; non-hydrolysed control solution (samples B and D),could not be quantified
same,CR (%),mAb SPm#23 [3],11.8%
same,hydrolysis at basic pH values,[4],quickly hydrolyses to form SP-enol
same,eye irritation,mammals,can be an eye irritant
same,skin-sensitization,mammals,may cause skin-sensitization
same,toxicity in mammals,mammals,does not show severe toxicity
same,fate on incubation in basic solution,"[5]; 40 mM NaOH, 10 min, room temperature, HPLC‒MS/MS",completely hydrolysed into SP-enol
same,"content found by HPLC–MS/MS, sample treatment A","[5]; A, SP hydrolysed (40 mM NaOH, 10 min, room temperature)",0.03
same,"Recovery (%), sample treatment A","[5]; A, SP hydrolysed, HPLC–MS/MS",93.4%
same,"content found by HPLC–MS/MS, sample treatment B","[5]; B, SP without hydrolysis",109.4
same,"Recovery (%), sample treatment B","[5]; B, SP without hydrolysis, HPLC–MS/MS",88.8%
same,"content found by HPLC–MS/MS, sample treatment C","[5]; C, SP-enol hydrolysed (40 mM NaOH, 10 min, room temperature)",0.02
same,"content found by HPLC–MS/MS, sample treatment D","[5]; D, SP-enol without hydrolysis",0.00
same,IC50,mAbs to SP and SP-enol,> 30 nM
